Drawing on PubChem BioAssay (NCI), this text covers GI50 and TGI for nine compounds.

Test systems include CCRF-CEM leukemia; UACC-257 melanoma; UO-31 renal; SF-539 CNS; IGROV1 ovarian; MALME-3M melanoma; OVCAR-4 ovarian; SN12C renal; HS 578T breast; SR leukemia.
Assay in all cases: NCI anticancer screen, dose series, 48 h

Several values for one entry are separate records, joined by “and”; a condition that tells them apart may be missing. Equal entries are not always repeated.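 The compound was tested at five concentrations on cells cultured in 96-well plates, with a 48-hour exposure period. GI50 is the concentration that inhibits growth by half. The concentration for full growth arrest is given as TGI.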

As for `C[C@@H]1OCC2(CCN(c3cnc(Sc4ccnc(N)c4Cl)c(N)n3)CC2)[C@@H]1N`, the GI50 with CCRF-CEM leukemia was more than 95.6 µM; in the assay on UACC-257 melanoma, more than 100 µM; with UO-31 renal, 0.926 µM; with SF-539 CNS it was 24.2 µM; with IGROV1 ovarian, 0.801 µM; in the assay on MALME-3M melanoma, more than 100 µM. For the same compound, the results for the GI50 with OVCAR-4 ovarian, with SN12C renal and in the assay on HS 578T breast were 26.9 µM, 27.7 µM and 61.8 µM, respectively. The TGI in the assay on CCRF-CEM leukemia, in the assay on UACC-257 melanoma, with UO-31 renal, in the assay with SF-539 CNS, in the assay with IGROV1 ovarian and in the assay on MALME-3M melanoma was more than 100 µM throughout. For the same compound, the TGI with OVCAR-4 ovarian, in the assay with SN12C renal and in the assay on HS 578T breast was more than 100 µM each time.

On to `COc1ccc(C2c3c(-c4ccccc4)nn(-c4ccccc4)c3Oc3ncn4nc(CC#N)nc4c32)cc1OC` (stereo unspecified), for which the GI50 was 28.6 µM and > 100 µM in the assay with CCRF-CEM leukemia; more than 100 µM in the assay on UO-31 renal; 19.2 µM and 2.49 µM with SF-539 CNS; 16.8 µM and 5.81 µM in the assay on IGROV1 ovarian. In addition, the TGI in the assay on CCRF-CEM leukemia was more than 100 µM; in the assay with SR leukemia it was 33 µM; in the assay with UACC-257 melanoma it was > 100 µM and 40.4 µM; in the assay on UO-31 renal it was more than 100 µM; with SF-539 CNS, 36.9 µM and > 27.6 µM; with IGROV1 ovarian, 41.7 µM and > 47 µM. Also, the TGI in the assay on OVCAR-4 ovarian is 65.9 µM and 7.38 µM; in the assay with SN12C renal, 44.5 µM and > 41.9 µM; in the assay with HS 578T breast it was 59.1 µM and 6.86 µM.

`Cc1c(-c2nnc(-c3cc(Cl)c(Cl)cc3Cl)o2)nnn1-c1ccnc2c(C(F)(F)F)cccc12`: the GI50 in the assay on SR leukemia was 20.6 µM; in the assay on UO-31 renal, 16.8 µM; with SF-539 CNS, 18.5 µM; in the assay on IGROV1 ovarian, 27.1 µM; with MALME-3M melanoma it was 19.2 µM; in the assay on OVCAR-4 ovarian it was 23.9 µM. In addition, the GI50 in the assay with SN12C renal is 31.4 µM; with HS 578T breast, 25.6 µM. Moreover, the TGI with SR leukemia came out at 47.5 µM; in the assay with UO-31 renal, 34.7 µM; with SF-539 CNS, 34.4 µM; in the assay on IGROV1 ovarian, 71.7 µM; in the assay with MALME-3M melanoma it was 51.1 µM; in the assay on OVCAR-4 ovarian, 65.8 µM. The TGI in the assay with SN12C renal was more than 100 µM; in the assay on HS 578T breast it was 65.6 µM.

On to `COc1cc(N2CCC(N3CCN(C)CC3)CC2)ccc1Nc1ncc(Cl)c(Nc2ccccc2S(=O)(=O)C(C)C)n1`, for which the GI50 with CCRF-CEM leukemia is 0.424 µM; in the assay on UACC-257 melanoma, 1.23 µM; in the assay on UO-31 renal it was 1.12 µM; in the assay with SF-539 CNS, 1.39 µM; in the assay with IGROV1 ovarian, 1.39 µM; in the assay with MALME-3M melanoma, 1.32 µM. The GI50 in the assay on OVCAR-4 ovarian was 0.341 µM; in the assay on SN12C renal, 0.613 µM; with HS 578T breast, 1.35 µM. Also, the TGI is 5.86 µM in the assay on CCRF-CEM leukemia; 2.58 µM with UACC-257 melanoma; 2.44 µM with UO-31 renal; 2.74 µM with SF-539 CNS; 9.2 µM in the assay with IGROV1 ovarian; 3.46 µM in the assay on MALME-3M melanoma. Further, the TGI with OVCAR-4 ovarian is 2.17 µM; with SN12C renal it was 14.2 µM; with HS 578T breast, 5.07 µM.

For the compound `Cc1ccc(C2=NN(c3ccc(S(N)(=O)=O)cc3)C(c3cn(-c4ccccc4)nc3-c3ccccc3)C2)cc1` (stereo unspecified), the GI50 in the assay with CCRF-CEM leukemia is more than 100 µM; in the assay on SR leukemia it was 5.92 µM; in the assay with UACC-257 melanoma, 29.6 µM; in the assay on UO-31 renal, 5.38 µM; in the assay on SF-539 CNS, more than 100 µM; with IGROV1 ovarian it was 28.3 µM. For the same compound, the figures for the GI50 in the assay with MALME-3M melanoma, in the assay on SN12C renal and in the assay with HS 578T breast were 81 µM, 2.23 µM and 18.3 µM, respectively. The TGI in the assay on CCRF-CEM leukemia, in the assay with SR leukemia, in the assay on UACC-257 melanoma, in the assay with UO-31 renal, with SF-539 CNS and with IGROV1 ovarian was more than 100 µM throughout. Moreover, the TGI with MALME-3M melanoma is more than 100 µM; with SN12C renal it was 5 µM; in the assay on HS 578T breast, more than 100 µM.

On to `Cc1nn(C)c2cc(N(C)c3ccnc(Nc4cccc(S(N)(=O)=O)c4)n3)ccc12`, for which the GI50 with CCRF-CEM leukemia is 7.3 µM; in the assay with UACC-257 melanoma it was 6.54 µM; with UO-31 renal, 3.44 µM; in the assay with SF-539 CNS it was 8.01 µM; in the assay with IGROV1 ovarian it was 5.98 µM; with MALME-3M melanoma, 4.72 µM. The GI50 in the assay with OVCAR-4 ovarian was 6.15 µM; in the assay with SN12C renal, 6.59 µM; in the assay with HS 578T breast it was 7.26 µM. In addition, the TGI is more than 25 µM in the assay on CCRF-CEM leukemia; more than 25 µM in the assay with UACC-257 melanoma; more than 18.1 µM in the assay on UO-31 renal; more than 25 µM in the assay with SF-539 CNS; more than 18.9 µM in the assay on IGROV1 ovarian; 21.8 µM in the assay with MALME-3M melanoma. Also, the TGI with OVCAR-4 ovarian, in the assay on SN12C renal and with HS 578T breast was more than 25 µM throughout.

On to `CCOCCOC[C@H]1CCCN(c2ccnc3sc(C(N)=O)c(N)c23)C1`, for which the GI50 is 11 µM with SR leukemia; 12.4 µM in the assay on UACC-257 melanoma; 15.3 µM in the assay on UO-31 renal; more than 100 µM in the assay on SF-539 CNS; 35 µM in the assay on IGROV1 ovarian; 86.6 µM in the assay on MALME-3M melanoma. The figures for the GI50 in the assay with OVCAR-4 ovarian, with SN12C renal and in the assay with HS 578T breast were 13.5 µM, 29.8 µM and 44.1 µM, respectively. Further, the TGI in the assay with SR leukemia, in the assay on UACC-257 melanoma, with UO-31 renal, in the assay on SF-539 CNS, with IGROV1 ovarian and in the assay with MALME-3M melanoma was more than 100 µM each time. Also, the TGI with OVCAR-4 ovarian, in the assay on SN12C renal and in the assay with HS 578T breast was more than 100 µM in each case.

Turning to `COc1ccc(C2CC(=O)c3c(O)c(OC)c(OC)c(OC)c3O2)cc1O` (stereo unspecified), the GI50 in the assay on CCRF-CEM leukemia was 0.115 µM; in the assay on SR leukemia, 0.0467 µM; with UO-31 renal, 2.18 µM; in the assay with SF-539 CNS it was 0.0666 µM; with IGROV1 ovarian, 0.976 µM; in the assay on MALME-3M melanoma, 32.8 µM. Besides, the GI50 is 3.78 µM in the assay with OVCAR-4 ovarian, 1.1 µM with SN12C renal and 0.0498 µM with HS 578T breast. The TGI in the assay on CCRF-CEM leukemia, in the assay with SR leukemia, in the assay on UO-31 renal, in the assay with SF-539 CNS, in the assay on IGROV1 ovarian and in the assay on MALME-3M melanoma was more than 100 µM in each case. Moreover, the TGI in the assay on OVCAR-4 ovarian, in the assay on SN12C renal and with HS 578T breast was more than 100 µM each time.

As for `CCOC(=O)N1C=CC(=C2C(=C3C=CN(C(=O)OCC)C=C3)C(=C3C=CN(C(=O)OCC)C=C3)C2=C2C=CN(C(=O)OCC)C=C2)C=C1`, the TGI in the assay with SR leukemia is 26.3 µM; in the assay with UACC-257 melanoma, more than 100 µM; in the assay with UO-31 renal, 38.5 µM; in the assay with SF-539 CNS, more than 100 µM; in the assay with IGROV1 ovarian, 85.3 µM; with MALME-3M melanoma, 64 µM. Moreover, the TGI is more than 100 µM with OVCAR-4 ovarian, 92.4 µM in the assay on SN12C renal and 85.6 µM with HS 578T breast.
